Measurements: article PMC9705314, “Characterization of a new potent and long-lasting single chain peptide agonist of RXFP1 in cells and in vivo translational models” (Scientific Reports, 2022)
*1 amine or outer side, *2 acyl side, *3 side chain or, on linkers, in order; H or OH if unused. Where a SMILES comes first, the peptide text is derived from it. Side-chain parts run from the residue outwards. [ ]: non-standard residue; d: D form. The star is where a group is joined. γGlu = O=C(O)[C@H](CCC(=O)[*:2])N[*:1]; Stearoyl = CCCCCCCCCCCCCCCCCC(=O)*; Nle = CCCC[C@H](N)C(=O)O; AEEA = NCCOCCOCC(=O)O; Aib = CC(C)(N)C(=O)O

Legend:
[1] = Pharmacokinetics in Sprague-Dawley rats; format: in vivo, rat; settings: for T1/2 (apparent terminal half-life): 1 mg/kg; for CL / AUXext: IV 1 mg/kg
Method: Sprague Dawley rats (10–12 weeks old) obtained from Charles Rivers Laboratories (Como, Iltaly) were dosed with study peptide at 1 mg/kg IV and 3 mg/kg SC as a solution in PBS (0.2 mg/mL and 0.6 mg/mL respectively). Blood samples were collected from individual animals at the following time points: 0.083, 0.25, 0.5, 1, 3, 6, 8, 24, 48 and 72 h (IV route) and 0.25, 0.5, 1, 2, 4, 8, 12, 24, 48 and 72 h (SC route). All samples, collected into K3-EDTA tubes, were centrifuged and plasma was harvested and stored at − 80 °C until analysis. Two hundred μL of 0.1% formic acid in methanol containing 10 ng/mL warfarin as internal standard were added to 50 μL of standard, QC and PK study samples to obtain the protein precipitation. Each sample was vortexed and centrifuged, for 20 min, at 17,000 rcf at 4 °C. Ten microliters of the extracted plasma samples were injected onto the column. Chromatographic separation was performed on an Ultimate 3000 (Thermo Scientific) chromatography system using an XSelect Peptide CSH C18, (50 mm × 2.1 mm I.D., 2.5 μm, 130 Å; Waters Corporation) with a flow rate of 0.500 mL/min at 60 °C and a two-solvent linear gradient system. Solvents A (water) and B (acetonitrile) contained both 0.1% formic acid. […] The Ultimate 3000 was coupled to an Orbitrap QExactive™ mass spectrometer (Thermo Scientific) in positive mode. Quantitation was performed in full scan. The optimized source parameters were as follows: ion spray voltage 2.9 kV, sheath gas flow 50 a.u., aux gas flow 15 a.u., aux T 300 °C, capillary T 320 °C, S-lens RF level 50%. Full MS parameters were as follows: mass range 150–2000, AGC target 1 × 10^6, max injection time 250 ms, resolution 70,000 (FWHM @ 200 m/z). Data processing was performed using Xcalibur 3.0 (Thermo Scientific). Ion current of the [M + 5H]5 + of the SA10SC-RLX was extracted with 5 ppm window for quantitation (814.47219 m/z). A calibration curve with 12 standard points was prepared freshly on the day of analysis by spiking appropriate amounts of an intermediate working standard solution into blank rat plasma and ranged from 1.22 to 20,000 ng/mL (0.30–4910 nM). Three QC samples, each at six concentration levels from 5.0 to 15,000 ng/mL (1.22–3690 nM), were used for all analyses. Calibration curves were prepared by plotting the analyte to internal standard peak area ratio versus concentration. Calibration standards were fit by linear regression with 1/x^2 weighting. QC samples (n = 3) were used at six concentration levels. Accepted calibration curve contained minimum 7 concentration levels within ± 20% of nominal. Accepted QCs were within ± 25% of nominal. PK parameters were calculated by non-compartmental analysis using Watson LIMS 7.5.

[2] = molecular target: T1, hRXFP1 (S69P) (Homo sapiens, UniProt Q9HBX9, S69P); test: cAMP production in HEK cells expressing hRXFP1 (S69P); format: cell-based; settings: hRXFP1 S69P mutant, n = 4 experiments in duplicate
T1 sequence (Q9HBX9 1-757 S69P): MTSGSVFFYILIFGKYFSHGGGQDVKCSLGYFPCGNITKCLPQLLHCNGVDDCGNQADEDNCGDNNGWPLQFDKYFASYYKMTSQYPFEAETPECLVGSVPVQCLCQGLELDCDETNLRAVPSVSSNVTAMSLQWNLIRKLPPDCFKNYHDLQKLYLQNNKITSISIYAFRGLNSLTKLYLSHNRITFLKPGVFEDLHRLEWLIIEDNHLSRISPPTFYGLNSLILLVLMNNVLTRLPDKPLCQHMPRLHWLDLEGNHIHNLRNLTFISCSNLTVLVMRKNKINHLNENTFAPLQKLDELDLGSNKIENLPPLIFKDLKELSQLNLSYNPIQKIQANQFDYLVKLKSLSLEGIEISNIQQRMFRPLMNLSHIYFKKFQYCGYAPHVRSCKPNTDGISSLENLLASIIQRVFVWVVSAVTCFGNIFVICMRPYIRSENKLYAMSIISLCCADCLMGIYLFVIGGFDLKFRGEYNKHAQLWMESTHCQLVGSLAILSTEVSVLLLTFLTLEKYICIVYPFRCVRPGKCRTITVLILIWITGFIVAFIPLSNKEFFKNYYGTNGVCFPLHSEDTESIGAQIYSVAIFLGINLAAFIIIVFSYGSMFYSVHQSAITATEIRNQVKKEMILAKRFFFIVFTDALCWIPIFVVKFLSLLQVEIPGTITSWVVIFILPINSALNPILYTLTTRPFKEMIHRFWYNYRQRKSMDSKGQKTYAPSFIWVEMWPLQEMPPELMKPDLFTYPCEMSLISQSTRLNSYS
Method: HEK cells were stably transduced with lentiviral constructs (Vectalys, MOI 20, batches rV2.1A1.5057 B, rV2.1A1.5056 B and rV2.1A1.5059 B) containing a bicistronic vectors encoding hRXFP1 (S69P) or hRXFP1 (F76V) or hRXFP1 (S69P/F76V) under the EF1 promoter followed by an internal ribosome entry site (IRES) elements to express the neomycin antibiotic resistance gene for selection with 500 μg/mL Geneticin (Invitrogen, #10131-019). Three days post transduction, HEK cells were grown in the presence of Genetecin. Positive individual clones were selected and amplified, and cAMP readout (nM) was used as described for other cell types at a cell density of 8000 cells/well.

Row | level at time molar at 12 h ([1]; Sprague-Dawley, rat, plasma, rats, SC 3 mg/kg, read-out: plasma concentration after 12 h) | T1/2 (apparent terminal half-life) ([1]; male Sprague-Dawley rats, IV 1 mg/kg in PBS, plasma, LC-HRMS, non-compartmental analysis, mean of n = 3) | T1/2 (apparent terminal half-life) ([1]; male Sprague-Dawley rats, IV 1 mg/kg in PBS, plasma, LC-HRMS, non-compartmental analysis, mean of n = 3, listed as SA10SC_RLX) | CL ([1]; male Sprague-Dawley rats, plasma, LC-HRMS, animal 1) | CL ([1]; male Sprague-Dawley rats, plasma, LC-HRMS, animal 2) | CL ([1]; male Sprague-Dawley rats, plasma, LC-HRMS, animal 3) | AUXext ([1]; male Sprague-Dawley rats, plasma, animal 1) | AUXext ([1]; male Sprague-Dawley rats, plasma, animal 2) | AUXext ([1]; male Sprague-Dawley rats, plasma, animal 3) | Cmax ([1]; male Sprague-Dawley rats, SC 3 mg/kg in PBS, plasma, LC-HRMS, non-compartmental analysis, mean of n = 3) | Tmax ([1]; male Sprague-Dawley rats, SC 3 mg/kg in PBS, plasma, LC-HRMS, mean of n = 3) | F ([1]; male Sprague-Dawley rats, SC 3 mg/kg vs IV 1 mg/kg, mean of n = 3) | AUCext ([1]; male Sprague-Dawley rats, SC 3 mg/kg, plasma, mean of n = 3) | AUC ([1]; rat, male Sprague-Dawley rats, IV 1 mg/kg in PBS, plasma, LC-HRMS, non-compartmental analysis, mean of n = 3) | clearance ([1]; rat, male Sprague-Dawley rats, IV 1 mg/kg in PBS, plasma, LC-HRMS, non-compartmental analysis, mean of n = 3, read-out: CL (plasma clearance)) | C0 ([1]; rat, male Sprague-Dawley rats, IV 1 mg/kg in PBS, plasma, LC-HRMS, non-compartmental analysis, mean of n = 3, read-out: Co) | Vd ([1]; rat, male Sprague-Dawley rats, IV 1 mg/kg in PBS, plasma, LC-HRMS, non-compartmental analysis, mean of n = 3, read-out: Vss) | AUC ([1]; rat, male Sprague-Dawley rats, SC 3 mg/kg in PBS, plasma, LC-HRMS, non-compartmental analysis, mean of n = 3) | Compound | cAMP response (efficacy) [2]
1 | ~1000 nM | 4 h | 3.9 h | 0.48 mL/min/kg | 0.44 mL/min/kg | 0.38 mL/min/kg | 1.01% | 1.01% | 1.02% | 1500 nM | 8 h | 74% | 1.09% | 9.57 µM·h | 0.43 mL/min/kg | 3200 nM | 0.12 L/kg | 21.2 µM·h | CCCCCCCCCCCCCCCCCC(=O)N[C@@H](CCC(=O)N[C@@H](CCC(=O)N[C@@H](CCC(=O)NCCOCCOCC(=O)NCCOCCOCC(=O)NCCOCCOCC(=O)NCCCC[C@H](NC(=O)[C@H](CCCCNC(C)=O)NC(=O)[C@H](CCCCN)NC(=O)[C@H](CCCNC(=N)N)NC(=O)C(C)(C)NC(=O)[C@H](CO)NC(=O)[C@H](Cc1c[nH]c2ccccc12)NC(=O)[C@@H](NC(=O)[C@H](CO)NC(=O)[C@H](CCCC)NC(=O)CNC(=O)[C@H](CCC(=O)O)NC(=O)C(C)(C)NC(=O)C(C)(C)NC(=O)[C@@H](NC(=O)[C@H](CCCCNC(C)=O)NC(=O)[C@H](C)NC(=O)[C@H](CCCNC(=N)N)NC(=O)[C@@H](NC(=O)[C@H](CCCCN)NC(=O)[C@H](CCC(=O)O)NC(=O)[C@H](CCCNC(=N)N)NC(=O)CNC(=O)[C@H](CCC(=O)O)NC(=O)[C@H](CC(C)C)NC(C)=O)C(C)C)[C@@H](C)CC)[C@@H](C)O)C(N)=O)C(=O)O)C(=O)O)C(=O)O [SA10SC-RLX] (Ac-LEGREKVRAK(Ac)I[Aib][Aib]EG[Nle]STWS[Aib]RKK(Ac)K([AEEA-AEEA-AEEA-γGlu-γGlu-γGlu-Stearoyl])-NH2) | 
2 |  |  |  |  |  |  |  |  |  |  |  |  |  |  |  |  |  |  | relaxin | reduced in all RXFP1 mutants compared to the wild type construct
